Assay results reported in patent US5358936A, “Anionic furanose derivatives, methods of making and using the same” (Gordon; Paul, priority 1991, dated 1994).
Values joined by “and” are separate entries in the source; they are usually repeats but may differ in a detail not shown here. Identical values can stand only once. “Also recorded” adds a separate entry of the source. Counter-ions that a name gives are not always drawn.

Columns and labels:
[1] = system: inflammation in experimental allergic encephalomyelitis; settings: Willenborg et al. (1989); cited from earlier work
[2] = system: neutrophils; assay: Microscopic examination of neutrophils for cytotoxicity (Example 24); assay type: cell-based, mouse
[3] = system: peritoneal neutrophils; assay: In vitro neutrophil chemotaxis toward zymosan-activated rat serum (Example 24); assay type: cell-based, mouse; settings: for IC50 / inhibition at 1 µg/mL / inhibition at 10 µg/mL / inhibition at 0.1 µg/mL: Mus musculus, Neutrophil; for IC50: 6 h, 20 percent zymosan-activated rat serum, six hours, 37° C., read-out: ID50 (molar concentration that inhibited chemotaxis by 50 percent); for inhibition at 1 µg/mL / inhibition at 10 µg/mL / inhibition at 0.1 µg/mL: read-out: Percent Inhibition of chemotaxis; for inhibition at 10 µg/mL: dose 10.0 μg/ml; for inhibition at 0.1 µg/mL: dose 0.1 μg/ml
Protocol: In vitro neutrophil chemotaxis studies were carried out by standard methods, as follows:
Mice were injected with complete Freund's adjuvant (CFA) and peritoneal cells, principally neutrophjls (>90 percent), were reproved from the mice 24 hours thereafter. Blind-well chemotactic chambers (Nucleopore Corp., Pleasanton, Calif.) were utilized.
Medium (RPMI 1640 plus 10 percent fetal calf serum) or medium plus 20 percent zymosan-activated rat serum (ZAS) was added to the lower compartment of each chamber. A nucleopore filter (8 μm pore size) was placed between compartments and 1×10^5 peritoneal neutrophils (above) suspended in medium were placed in the upper compartment. Chambers were incubated for six hours, after which time the filters were removed and stained with Giemsa stain. The number of cells on the lower surface of the filter was counted under a microscope. Treatment groups were assayed in duplicate.
The studies were carried out more specifically as follows:
Zymosan (Sigma Chemical Co., St. Louis, Mo.) was mixed with rat serum for one hour at 37° C. at 1 milligram (mg)/ml. The resulting chemoattractant composition was filtered, aliquotted and stored frozen at -70° C. prior to use.
The above chemoattractant composition was used as a 20 percent v/v solution in medium.
The chemotaxis chambers were arranged as follows:
The chambers were incubated at 37° C. for six hours, after which the chambers were dismantled, and the filters removed and treated as follows:
a) The filters were immersed in Giemsa stain diluted 1:50 for 30-45 minutes.
b) The stained filters were rinsed gently in distilled water for 3-5 minutes.
c) The stained, rinsed filters were air dried without blotting.
Several compounds described herein and control compounds ("drug", above) were examined at various concentrations, in duplicate. The molar concentration of a drug that inhibited the observed chemotaxis by 50 percent, defined as the ID50 value, was determined as shown below.

[4] = system: rat paw; assay: Post-ischemic reperfusion paw swelling (Example 22); assay type: in vivo, Sprague Dawley male rats; settings: study C, 0.2 mg/kg i.p.
From the text: This important disease model is used to evaluate aspects of tissue injury that occur in heart attack, or myocardial infarction, and stroke. Under these conditions, a significant period of injury can occur after blood flow has been restored, during the period of reperfusion.
To produce ischemia, blood flow to the left hind foot was largely interrupted by application of a tourniquet made up of two size 18 rubber bands wound eight times around the leg just behind the heel. […] Both application and removal of tourniquet were carried out under ether anesthesia. Injury was equated with organ swelling, which was assayed by measurement of the dorsoventral foot diameter with a Schnelltaster caliper, just before application of the tourniquet and at various times following tourniquet removal, during the reperfusion period.
Rats employed were Sprague Dawley males, weighing 240-280 grams. Drug comparisons were made here employing measurements 30 minutes into the reperfusion period. The widely studied drug allopurinol, a xanthine oxidase inhibitor and a free radical scavenging agent, used in the treatment of gout, and widely used to suppress experimental post-ischemic reperfusion injury was used as an experimental treatment standard. In studies below, allopurinol and all new drugs were given intraperitoneally 45-60 minutes prior to application of the tourniquet. Data are reported as the mean swelling (Mn)±standard error (SE). […] Group n is 5 or 6.
In another study, drug comparisons were made at various times after the reperfusion period. In this study, control and drug treatment groups were as above.

[5] = system: foot pad; assay: Inflammation provoked by carrageenan injection (Example 25); assay type: in vivo, mice; settings: subcutaneous; ibuprofen 50 mg/kg, Compound III 30 mg/kg; not significant
[6] = system: focal submucosal lesions; assay: Ethanol-induced gastric focal lesions (Example 33); assay type: in vivo, rat; settings: one hour post-ethanol, 50 mg/kg
[7] = Dissolution and buffering of suspensions, HCl titration (Example 16)
From the text: Note that the term "apparent pK" in this context is meant to encompass the maximization of buffering that come both from solid-state dissolution and its titration as solute.

[8] = system: focal submucosal lesions; assay: Ethanol-induced gastric focal lesions (Example 33); assay type: in vivo, rat
Protocol: At three hours after ethanol administration, this drug continued to suppress ethanol-induced focal lesions (-57 percent).
A suspension of 25 mg/kg sucralfate+25 mg/kg Compound III:Al in combination was given as a pretreatment administration to another group in the same study. The combination produced an unanticipated augmentation of therapeutic effect against ethanol-induced focal submucosal lesions (-90 percent) at three hours post-ethanol administration. The same interactive phenomenon was also observed when Compound III was used, rather than Compound III:Al.

[9] = system: gastric mucosal ulcers; assay: Healing of established gastric ulcers induced by acetic acid (Example 34); assay type: in vivo, rat
From the text: To evaluate drug effects on peptic ulcer healing, gastric mucosal ulcers were produced in rats, after a two day fast, by a modification of the method of Konturek et al., Am. J. Med., Vol. 86, 6A, 32 (1989). Briefly, to produce a mucosal ulcer, Konturek et al. applied 100 percent acetic acid for twenty seconds to the stomach serosa through a small cylindrical mold, 4.2 mm in diameter. The aim here was to make ulceration more severe than was achieved by the Konturek group so that spontaneous healing would not be as pronounced as they found in the controls, over an experimental period of seven days.
All drugs studied were suspended in 0.25 percent (by weight) aqueous methylcellulose solution as the vehicle or diluent, which also served as the placebo given to the controls. Treatments were given once daily by oral gavage, in one milliliter of vehicle. The treatment groups were: Control; Sucralfate at 200 mg/kg; and Compound III:Al at 200 mg/kg.
At the end of the treatment period, stomachs were removed, ulcer diameters were measured, and determination was made of the presence or absence of perforation.
A second study was carried out in which ulcer evolution was permitted to take place over five additional days, in the absence and presence of treatment with Sucralfate.
A third study was begun one day following the start of study 2, in which ulcer evolution was allowed to take place over five additional days, in the absence and presence of treatment with Compound III:Al.
In another study, after ulcer induction as above, a different dosage protocol was employed at 24 hours to evaluate the interaction of Compound III and orally administered sucralfate on ulcer healing. […] Here, daily drug doses of the following were used: (a) sucralfate at 200 mg/kg, alone and (b) in combination with 80 mg/kg Compound III given by mouth at -45 minutes, and, in a third group, (c) in combination with 10 mg/kg Compound III given IV also at -45 minutes. In this interaction study, drug treatment was continued for three and not five days, as was the case for the above studies, followed by passage of two additional non-treatment days before sacrifice of animals for evaluation of stomach ulcer area and perforation.
Data from all ulcer-healing studies employing a drug dosage of 200 mg/kg and the same ulcerogenesis protocol were pooled as to the frequency of gastric perforation observed on day five, not shown separately, with the day six perforation data shown above.

[10] = Solubility / dissolution in acid, water and 20 percent methanol; assay type: physicochemical; settings: pH 1.2; Compound III:Al 2.5 mg/ml
[11] = system: mouse blood coagulation
Protocol: To assess the effect on coagulation, if any, of a compound of the invention, a comparative evaluation was made using mouse blood.
One ml of freshly drawn mouse blood was added to each tube, and the tube contents were mixed. The clotting time was then noted for each tube, and the results are as shown below:

[12] = three hours post-ethanol, 50 mg/kg, combination 25 + 25 mg/kg

## O=P(O)(O)OC[C@H]1OC(O)[C@@H](O)[C@@H](O)[C@@H]1O (stereo partly drawn) [Mannose-6-phosphate]
[1]
  effect on inflammation in EAE, in words: useful in treating inflammation

## CC1(C)O[C@H]2O[C@H]([C@H](O)COP(=O)(O)O)[C@H](OP(=O)(O)O)[C@H]2O1 [Compound VI, 1,2-O-(2-Propylidene)-3,6-di-O-phospho-α-D-glucofuranose, tetrapotassium salt]
[2]
  expressions of cytotoxicity in neutrophils by microscopic examination: diffuse toxic granularity in the cells
[3]
  IC50: 1 µM
  inhibition at 10 µg/mL: 85%
[3]; dose 1.0 μg/ml
  inhibition at 1 µg/mL: 44%
  Percent Inhibition of chemotaxis: 47.0%
[4]; control 18.4 ± 0.54, P < 0.02
  Post-ischemic reperfusion 30 minute paw swelling, Mn ± SE: 9.1 ± 0.27 0.1 mm
[4]; 30 minutes
  Swelling change as a result of treatment: -50%

## CC(C)Cc1ccc(C(C)C(=O)O)cc1 (stereo not drawn) [Ibuprofen, reference compound]
[5]
  reduction in swelling: 24%
[3]
  IC50: > 50 µM
  inhibition at 0.1 µg/mL: 17.5%
  inhibition at 10 µg/mL: 35.5%
[3]; dose 1.0 μg/ml
  inhibition at 1 µg/mL: 9.3%

## CCCN(CCC)S(=O)(=O)c1ccc(C(=O)O)cc1 [Probenecid, reference compound]
[2]
  expressions of cytotoxicity in neutrophils by microscopic examination: stringy, elongated deformation in the neutrophils
[3]
  IC50: 3 µM
  inhibition at 0.1 µg/mL: 5.5%
  inhibition at 10 µg/mL: 89.5%
[3]; dose 1.0 μg/ml
  inhibition at 1 µg/mL: 59.5%

## Aluminum Complex of 1,2-O-(1-Isopropylidene)-3,5,6-Tri-O-Sulfo-D-Glucofuranose [Compound III:Al]
[6]
  change in focal lesions versus control: -100%
[6]; n = 6, control 4.17 ± 1.58, p<0.05
  Focal Lesions per Stomach: 0.00 per Stomach
[7]; 50 mg in 20 ml distilled water, initial pH 4.44 (aluminum trihydroxide), 4.91 (sucralfate), 4.23 (Compound III:Al), water alone 0.30
  HCl needed to lower pH of suspension to below pH 2.00: 1.2 meq
[7]; HCl titration
  buffering action, in words: better dissolution-and-buffering action between pH 4.5 and 2.0 than either aluminum trihydroxide or sucralfate; also recorded: no buffering power whatsoever at this pH value
[7]; sucralfate = 1
  Relative Buffering Power between pH 4.5 and 2.0: 11
[8]; pretreatment 50 mg/kg one hour before ethanol
  effect on ethanol-produced gastric pathology, in words: inhibited all focal lesions provoked by ethanol after one hour without suppressing large-vessel vasodilation
[8]; [12]
  change in focal lesions versus control: -57%
  change in focal lesions versus control, study employing Compound III: -33%
[8]; three hours post-ethanol, 50 mg/kg, combination 25 + 25 mg/kg, control 2.25 ± 0.98
  Focal Lesions per Stomach, study employing Compound III: 1.50 + 0.76 per Stomach
[8]; three hours post-ethanol, 50 mg/kg, combination 25 + 25 mg/kg, n = 17, control 4.94 ± 1.41
  Focal Lesions per Stomach: 2.12 ± 0.87 per Stomach
[9]; Day 6, 200 mg/kg oral
  DRUG EFFECT on mean ulcer score: -80%
[9]; Day 6, 200 mg/kg oral once daily, * = perforation, 200 mg/kg
  Established ulcer score, individual animal (area in cm^2, + 2.0 for perforation): 1.2 and 5.75 and 0.72 and 0.8 and 0.5 and 0.3 and 0.56 and 1.4 and 0.90 and 1.44
[9]; Day 6, 200 mg/kg oral, controls 3.03 ± 0.73 (sucralfate study, not significant), 4.12 ± 0.67 (Compound III:Al study, P < 0.001)
  MEAN SCORE, established ulcers: 0.82 ± 0.13
[9]; day six, 200 mg/kg oral
  DRUG EFFECT on mean ulcer area: -65%
[9]; day six, 200 mg/kg oral, controls 2.14 ± 0.43 (sucralfate, P < 0.1), 2.32 ± 0.61 (Compound III:Al, P < 0.05)
  Established ulcer area, MEAN: 0.82 ± 0.13 CM^2
[9]; pooled, 200 mg/kg, control 50, Compound III:Al P < 0.001 vs control and vs sucralfate
  Perforation As Percent: 0%
[9]; pooled, 200 mg/kg, days five and six, control 26/52
  Perforation Frequency: 0/49
[10]
  dissolution of suspension in acid: still not all dissolved

## Heparin
[11]
  effect on blood coagulation, in words: uncoagulatable after 60 minutes

## O=P(O)(O)OC[C@H]1OC(O)(COP(=O)(O)O)[C@@H](O)[C@@H]1O (stereo partly drawn) [fructose-1,6-diphosphate]
[1]
  effect on inflammation in EAE, in words: less effective than mannose-6-phosphate

## O=P(O)(O)OC[C@H]1O[C@H](OP(=O)(O)O)[C@@H](O)[C@@H](O)[C@@H]1O [Mannose-1,6-diphosphate]
[1]
  effect on inflammation in EAE, in words: less effective than mannose-6-phosphate
